Assay results reported in patent US5063229A, “Imidazolo [1,2-a]pyrimidines and medical use thereof” (Roussel Ulcaf, priority 1986, dated 1991).
pIC50: −log10 of the molar value. Values belong to the compound of their own block, whether it stands above or below them.

Tested on: rat peritoneal neutrophils
Assay: Inhibition of ionophore-stimulated release of free arachidonic acid from [14C]-arachidonic acid pre-labelled rat peritoneal neutrophils
Format: cell-based
Conditions: read-out: IC50, concentration required to inhibit by 50% compared to controls the release of radiolabelled products into supernatant liquid
From the text: The inhibition of ionophore-stimulated release of free arachidonic acid from [^14 C]-arachidonic acid pre-labelled rat peritoneal neutrophils was studied using modifications of the method of Ahnfelt-Ronne and Arrigoni-Martelli [Biochemical Pharmacol., (1982) Vol. 31, p. 2619]. The results below show the micromolar concentrations of test compound required to inhibit, by 50% compared to controls, the release of radiolabelled products into supernatant liquid (IC50 -μM).

SMILES: C=C(C)C(=O)c1nc2nc(SC)c(CC)c(C)n2c1Br [Example 1, 1-(3-bromo-6-ethyl-5-methyl-7-methylthio-imidazo[1,2-a]pyrimidin-2-yl)-2-methyl-2-propen-1-one]
pIC50: 5.17

SMILES: C=C(C)C(=O)c1nc2nc(OC)c(CC)c(C)n2c1Br [Example 2, (3-bromo 6-ethyl 7-methoxy 5-methylimidazo [1,2-a]pyrimidin-2-yl) isopropenyl methanone]
pIC50: 4.77

SMILES: C=C(C)C(=O)c1nc2nc(OC)c(CC)c(C)n2c1Cl [Example 3, (3-chloro 6-ethyl 7-methoxy 5-methylimidazo [1,2-a]pyrimidin-2-yl) isopropenyl methanone]
pIC50: 4.68

SMILES: C=C(C)C(=O)c1nc2nc(OC)cc(C)n2c1Br [Example 4]
pIC50: 5.13

SMILES: C=CC(=O)c1nc2nc(OC)c(CC)c(C)n2c1Br [Example 5, (3-bromo 6-ethyl 7-methoxy 5-methylimidazo [1,2-a]pyrimidin-2-yl) ethenyl methanone]
pIC50: 5.77

SMILES: C=C(C)C(=O)c1cn(-c2ccc(CC)cc2)c(SC)n1 [Example 6, [1-(4-ethylphenyl) 2-imidazol-4-yl] isopropenyl methanone]
pIC50: 5.42

SMILES: C=C(C)C(=O)c1nc(SC)n(-c2ccc(CC)cc2)c1Br [Example 7, [1-(4-ethylphenyl) 5-bromo 2-thiomethylimidazol-4-yl] isopropenyl methanone]
pIC50: 5.60

SMILES: C=C(C)C(=O)c1nc(SC)n(-c2ccc(OC)cc2)c1Br [Example 8, [1-(4-methoxyphenyl) 5-bromo 2-thiomethylimidazol-4-yl] isopropenyl methanone]
pIC50: 5.14

SMILES: C=C(C)C(=O)c1nc(SC)n(-c2ccc(OC)cc2)c1Cl [Example 9, [1-(4-methoxyphenyl) 5-chloro 2-thiomethylimidazol-4-yl] isopropenyl methanone]
pIC50: 5.04

SMILES: C=C(C)C(=O)c1nc(SC)n(-c2ccc(C)cc2)c1Br [Example 10, [1-(4-methylphenyl) 5-bromo 2-thiomethylimidazol-4-yl] isopropenyl methanone]
pIC50: 5.00

SMILES: C=C(C)C(=O)c1nc(SC(C)C)n(-c2ccc(C)cc2)c1Br [Example 11, [1-(4-methylphenyl) 5-bromo 2-thioisopropylimidazol-4-yl] isopropenyl methanone]
pIC50: 5.43

SMILES: C=C(C)C(=O)c1nc(SC)n(-c2ccc(F)cc2)c1Br [Example 12, [1-(4-fluorophenyl) 5-bromo 2-thiomethylimidazol-4-yl] isopropenyl methanone]
pIC50: 4.82

SMILES: C=CC(=O)c1nc(SC)n(-c2ccc(OC)cc2)c1Br [Example 13, [1-(4-methoxyphenyl) 5-bromo 2-thiomethylimidazol-4-yl] ethenyl methanone]
pIC50: 5.64

SMILES: C=C(C)C(=O)c1nc(SC)n(-c2ccc(O)cc2)c1Br [Example 14, [5-bromo-1-(4-hydroxyphenyl)-2-methylthioimidazol-4-yl]-2-methyl-2-propen-1-one]
pIC50: < 5.00

SMILES: C=C(C)C(=O)c1nc(SC(C)C)n(CC)c1Br [Example 15, (1-ethyl 5-bromo 2-thioisopropyl imidazol-4-yl) isopropenyl methanone]
pIC50: 4.77

SMILES: C=C(C)C(=O)c1nc([S+]([O-])C(C)C)n(-c2ccc(CC)cc2)c1Cl (stereo not drawn) [Example 16, [5-chloro-1-(4-ethylphenyl)-2-(prop-2-ylsulfinyl)-imidazol-4-yl]-2-methyl-2-propen-1-one]
pIC50: 5.36

SMILES: CCc1c(OC)nc2nc(C(=O)C#Cc3ccccc3)cn2c1C [Example 18, (6-ethyl 7-methoxy 5-methylimidazo [1,2-a]pyrimidin-2-yl) phenylethynyl methanone]
pIC50: 4.92

SMILES: CCc1c(OC)nc2nc(C(=O)C#CC(C)(C)C)cn2c1C [Example 19, 1-(6-ethyl 7-methoxy 5-methylimidazo [1,2-a]pyrimidin-2-yl) (3,3-dimethylbut-1-ynyl) methanone]
pIC50: 4.80

SMILES: CCc1c(OC)nc2nc(C(=O)C#CC(C)(C)C)c(Br)n2c1C [Example 20, (3-bromo 6-ethyl 7-methoxy 5-methylimidazo [1,2-a]pyrimidin-2-yl) (3,3-dimethylbut-1-ynyl) methanone]
pIC50: 5.38

Further lines, results first:

pIC50: 5.82
SMILES: CCc1c(OC)nc2nc(C(=O)C#Cc3ccccc3)c(Br)n2c1C [Example 21, (3-bromo 6-ethyl 7-methoxy 5-methylimidazo [1,2-a]pyrimidin-2-yl) (2-phenylethy-1-yl) methanone]

pIC50: 4.23
SMILES: CCc1c(OC)nc2nc(C(=O)C#CCO)c(Br)n2c1C [Example 22, 1-(3-bromo-6-ethyl-7-methoxy-5-methyl-imidazo[1,2-a]pyrimidin-2-yl)-4-hydroxy-2-butyn-1-one]

pIC50: 4.34
SMILES: CCc1c(OC)nc2nc(C(=O)C#CCO)cn2c1C [Example 23, 1-(6-ethyl-7-methoxy-5-methylimidazo[1,2-a]pyrimidin-2-yl)-4-hydroxy-2-butyn-1-one]

pIC50: 5.14
SMILES: CC#CC(=O)c1nc2nc(OC)c(CC)c(C)n2c1Br [Example 24, (3-bromo 6-ethyl 7-methoxy 5-methylimidazo [1,2-a]pyrimidin-2-yl) (propyn-1-ynyl) methanone]

pIC50: 4.55
SMILES: C=C(C)C(=O)c1nc2ccccn2c1Br [Example 25, (3-bromoimidazo [1,2-a]pyridin-2-yl) isopropenyl methanone (chlorhydrate)]

pIC50: < 4.00
SMILES: C=C(C)C(=O)c1cn2ccccc2n1 [Example 26, (imidazo [1,2-a]pyridin-2-yl) isopropenyl methanone]

pIC50: 4.39
SMILES: O=C(C#Cc1ccccc1)c1cn2ccccc2n1 [Example 27, (imidazo [1,2-a]pyridin-2-yl) (2-phenylethyn-1-yl) methanone]

pIC50: 5.28
SMILES: O=C(C#Cc1ccccc1)c1nc2ccccn2c1Br [Example 28, 3-bromoimidazo [1,2-a] pyridin-2-yl (2-phenylethyn-1-yl) methanone]
